Experimental data from article PMC6268294, “Synthesis of Chalcones with Anticancer Activities” (Molecules, 2012).
Converted amounts (≈) assume the structure as drawn. Where two headings read alike, the source gives them in different places.

Key:
[1] = tested on: human breast adenocarcinoma cell line MCF-7; test: MTT cell viability assay, MCF-7; format: cell-based; conditions: MCF7, 24 h treatment
Method: (§1) A549, PC3, MCF-7, HT-29, WRL68 and MCF-7 cells were obtained from the ATTC (Rockville, MD, USA) and grown in RPMI-1640 medium, 10% fetal bovine serum (FBS) and 1% pen-strep, in humidified conditions at 5% CO2 and 37 °C. The different cell lines mentioned above were used to determine the inhibitory effects of compounds on cell growth using the MTT assay. This colorimetric assay is based on the conversion of the yellow tetrazolium bromide (MTT) to a purple formazan derivative by mitochondrial succinate dehydrogenase in viable cells. Cells were seeded in 96-well plate and incubated for 24 h at 37 °C with 5% CO2 saturation. After incubation, the cells were treated with different concentration of compounds and incubated for another 24 h. After 24 h of drug treatment, 20 µL of MTT solution at 5 mg/mL was added and incubated for 4 h. Dimethyl sulfoxide (DMSO) in volume of 100 µL is added into each well to dissolve the purple formazan formed. The colorimetric assay is measured and recorded at absorbance of 570 nm.

[2] = tested on: human adenocarcinoma cell line HT-29 (colorectal cancer); test: MTT cell viability assay, HT-29; format: cell-based; conditions: 24 h treatment
Method: as §1

[3] = tested on: human normal liver cell line WRL-68; test: MTT cell viability assay, WRL68; format: cell-based; conditions: 24 h treatment
Method: as §1

[4] = tested on: human lung adenocarcinoma cell line A549; test: MTT cell viability assay, A549; format: cell-based; conditions: 24 h treatment
Method: as §1

[5] = tested on: human prostate cancer cell line PC3; test: MTT cell viability assay, PC3; format: cell-based; conditions: 24 h treatment
Method: as §1

[6] = tested on: MCF-7 (breast), A549 (lung), PC3 (prostate), HT-29 (colorectal) and WRL68 (liver); test: MTT assay, summary over all five cell lines; format: cell-based, human; conditions: for IC50: Homo sapiens
Method: as §1

[7] = tested on: ROS in MCF-7 cells; test: Intracellular ROS level (DCFDA); format: cell-based, human; conditions: MCF-7, 24 h, high concentration (6 µg/mL; 25: 4 µg/mL), vs untreated control, p < 0.05
Method: (§2) Due to the observation of significant cytotoxicity of selected compounds towards MCF-7 cells, the following analyses were done on them only. Cells were treated with compound 1 (1A- 3 µg/mL; 1B- 6 µg/mL), 23 (23A- 3 µg/mL; 23B- 6 µg/mL), 25 (25A- 2 µg/mL; 25B- 4 µg/mL) and 5 (5A- 3 µg/mL; 5B- 6 µg/mL).
The production of ROS was estimated by fluorescence using the redox-sensitive fluorescent probe DCFDA (Sigma). The oxidation of DCFDA by ROS converts the molecule to 2′,7′-dichlorodihydrofluorescein (DCF), which is highly fluorescent. Thus, ROS production by stimulated cells causes an increase in the fluorescence signal over time. ROS assays were performed as previously described (13). Briefly, the MCF-7 cells were seeded in 96-well plates (5 × 10^4 cells/well) and allowed to attach for 24 h. After 24 h treatment with compounds 1, 23, 25 and 5 as mentioned before, the cells were washed three times with PBS and incubated for 60 min with […] DCFDA at room temperature. Again the wells were washed with PBS. Fresh PBS was added (100 μL/well) and DCF fluorescence was detected using a Tecan Infinite M200 fluorescence microplate reader at excitation and emission wavelengths of 485 and 528 nm, respectively. The fluorescence intensity unit of treatments was compared with control.

[8] = tested on: MCF-7 cells; test: Multiparametric high content screening (HCS) cytotoxicity/apoptosis assay; format: cell-based, human; conditions: for cell (membrane) permeability / cytochrome c release / mitochondrial membrane potential / total nuclear intensity (Hoechst 33342 nuclear chromatin staining) / cell loss: MCF-7, compounds 2-6 µg/mL; for cell (membrane) permeability / cytochrome c release / mitochondrial membrane potential / total nuclear intensity (Hoechst 33342 nuclear chromatin staining): tamoxifen 0.04 µg/mL, vs control; for cell loss: data not shown; for apoptosis in MCF-7 cells: shown by multiparameter cytotoxicity assay and caspase-3/7, -8, -9 activities, p < 0.05
[9] = tested on: caspase-8 in MCF-7 cells; test: Caspase-Glo-8 activity; format: cell-based, human; conditions: MCF-7, 24 h, highest concentrations (6 µg/mL; 25: 4 µg/mL); control printed 50892 RLU; p < 0.05
Method: as §2
(§3) Activity of cellular caspases was measured using the Caspase-Glo-9, Caspase-Glo-3/7 and Caspase-Glo-8 assay reagents (Promega), according to the manufacturer's instructions. The assays provide a luminogenic caspase-3/caspase-7 or caspase-8 or caspase-9 substrate, respectively, in a buffer system optimized for caspase activity measurement in cell lysates. The luciferase signal generated is proportional to the amount of caspase activity present. MCF-7 cells have no caspase-3 activity due to functional deletion of the CASP-3 gene. Therefore, the activity measured in this test is that of caspase-7. Briefly, cells were plated in opaque 96-well plates in triplicate and treated with […]. After 24 h treatment with compounds 1, 23, 25 and 5 as mentioned before, the assay reagents were added to the plates at room temperature and incubated for 60 min, and the luminescence was measured using a plate reader. All assays were done in triplicate, and means ± SD were calculated for each condition.

[10] = tested on: caspase-3/7 in MCF-7 cells; test: Caspase-Glo-3/7 activity; format: cell-based, human; conditions: MCF-7, 24 h, highest concentration (6 µg/mL for 1); control 30,140 RLU
Method: as §2, §3

[11] = all five cell lines, MTT, read-out: IC50 in all cell lines

SMILES	IC50 [1] [µg/mL]	IC50 [2] [µg/mL]	IC50 [3] [µg/mL]	IC50 [4] [µg/mL]	IC50 [5] [µg/mL]	melting point [°C]	cytotoxic effect in words [6]	IC50 [6, 11] [µg/mL]	ROS increase at high concentration [7] [fold]	cell (membrane) permeability [8]	cytochrome c release [8]	mitochondrial membrane potential [8]	total nuclear intensity (Hoechst 33342 nuclear chromatin staining) [8]	cell loss [8]	apoptosis in MCF-7 cells [8]	caspase-8 activity at highest concentration [9]	cytotoxic effect in words ([6]; all cell lines, MTT)	caspase-3/7 activity at highest concentration [10] [RLU]	IC50 ([6]; all cell lines except for the A549 cell line, MTT, read-out: IC50 in all cell lines except A549) [µg/mL]
Cc1cccc(/C=C/C(=O)c2ccccc2)c1 [Compound 9, 1-Phenyl-3-m-tolylpropenone]	9.34 ± 0.56 (≈ 42 µM)	19 ± 1.5 (≈ 85.3 µM)	9.78 ± 1.01 (≈ 44 µM)	24.7 ± 2 (≈ 111 µM)	9.4 ± 1.9 (≈ 42.3 µM)	68 to 70	–	–	–	–	–	–	–	–	–	–	–	–	–
O=C(/C=C/c1ccccc1Cl)c1ccccc1 [Compound 5, 3-(2-Chlorophenyl)-1-phenylpropenone]	7.99 ± 0.81 (≈ 32.9 µM)	13.2 ± 1.2 (≈ 54.6 µM)	11.5 ± 1.1 (≈ 47.2 µM)	19.9 ± 1.66 (≈ 82.2 µM)	13.8 ± 1.2 (≈ 57 µM)	53 to 54	high cytotoxicity	< 20	2.7	increased cell permeability	cytochrome c release from mitochondria	loss of mitochondrial membrane potential	increased total nuclear intensity	statistically significant cell loss	capable in eliciting apoptosis	–	–	–	–
Cc1ccc(C(=O)/C=C/c2ccccc2O)cc1 [Compound 23, 3-(2-Hydroxyphenyl)-1-p-tolylpropenone]	6.87 ± 1.2 (≈ 28.8 µM)	13 ± 0.54 (≈ 54.5 µM)	9.53 ± 1.5 (≈ 40 µM)	16.8 ± 1.76 (≈ 70.5 µM)	9.49 ± 0.7 (≈ 39.8 µM)	165 to 167	high cytotoxicity	< 20	–	increased cell permeability	cytochrome c release from mitochondria	loss of mitochondrial membrane potential	increased total nuclear intensity	statistically significant cell loss	capable in eliciting apoptosis	18,342 RLU	–	–	–
Cc1ccc(C(=O)/C=C/c2ccc(N(C)C)cc2)cc1 [Compound 19, 3-(4-Dimethylaminophenyl)-1-p-tolyl-propenone]	57.3 ± 3.1 (≈ 216 µM)	69.5 ± 4.23 (≈ 262 µM)	39.8 ± 3.9 (≈ 150 µM)	58.5 ± 3.2 (≈ 221 µM)	> 100	124 to 125	–	–	–	–	–	–	–	–	–	–	–	–	–
CN(C)c1ccc(/C=C/C(=O)c2ccc(O)cc2)cc1 [Compound 18, 3-(4-Dimethylaminophenyl)-1-(4-hydroxy-phenyl)-propenone]	> 100	> 100	> 100	> 100	> 100	–	–	–	–	–	–	–	–	–	–	–	low cytotoxic effects	–	–
O=C(/C=C/c1ccccc1)c1ccccc1 [Compound 1, 1,3-Diphenylpropenone]	6.88 ± 0.219 (≈ 33 µM)	10.1 ± 1.01 (≈ 48.5 µM)	10.6 ± 0.89 (≈ 50.7 µM)	16.8 ± 1.08 (≈ 80.5 µM)	9.11 ± 0.9 (≈ 43.7 µM)	–	–	< 20	–	increased cell permeability	cytochrome c release from mitochondria	loss of mitochondrial membrane potential	increased total nuclear intensity	statistically significant cell loss	capable in eliciting apoptosis	–	high cytotoxicity	210430	–
Cc1ccc(C(=O)/C=C/c2ccccc2Cl)cc1 [Compound 7, 3-(2-Chlorophenyl)-1-P-tolylpropenone]	> 100	> 100	> 100	> 100	> 100	50 to 51	low cytotoxic effects	–	–	–	–	–	–	–	–	–	–	–	–
COc1ccc(C(=O)/C=C/c2ccccc2Cl)cc1 [Compound 8, 3-(2-Chlorophenyl)-1-(4-methoxy-phenyl)propenone]	> 100	> 100	> 100	> 100	> 100	–	low cytotoxic effects	–	–	–	–	–	–	–	–	–	–	–	–
O=C(/C=C/c1ccccc1O)c1ccc(O)cc1 [Compound 22, 3-(2-Hydroxyphenyl)-1-(4-hydroxyphenyl)-propenone]	> 100	> 100	> 100	> 100	> 100	287 to 289	low cytotoxic effects	–	–	–	–	–	–	–	–	–	–	–	–
Cc1cccc(/C=C/C(=O)c2ccc(O)cc2)c1 [Compound 10, 1-(4-Hydroxyphenyl)-3-m-tolylpropenone]	8.34 ± 0.472 (≈ 35 µM)	12.1 ± 3 (≈ 50.8 µM)	13.4 ± 2.09 (≈ 56.4 µM)	19.7 ± 1.22 (≈ 82.6 µM)	13.7 ± 1.1 (≈ 57.5 µM)	–	high cytotoxicity	< 20	–	–	–	–	–	–	–	–	–	–	–
COc1ccc(C(=O)/C=C/c2cccc(C)c2)cc1 [Compound 12, 1-(4-Methoxyphenyl)-3-m-tolylpropenone]	9.53 ± 1.99 (≈ 37.8 µM)	15.8 ± 2.1 (≈ 62.5 µM)	11.1 ± 1.8 (≈ 44.1 µM)	31.8 ± 1.5 (≈ 126 µM)	9.87 ± 0.71 (≈ 39.1 µM)	74 to 75	–	–	–	–	–	–	–	–	–	–	–	–	< 20
O=C(/C=C/c1cccc(Cl)c1)c1ccccc1 [Compound 25, 3-(3-Chlorophenyl)-1-phenylpropenone]	5.25 ± 0.67 (≈ 21.6 µM)	7.77 ± 1.1 (≈ 32 µM)	7.72 ± 1.6 (≈ 31.8 µM)	14.5 ± 0.2 (≈ 59.7 µM)	6.94 ± 0.61 (≈ 28.6 µM)	–	high cytotoxicity	< 20	–	increased cell permeability	cytochrome c release from mitochondria	loss of mitochondrial membrane potential	increased total nuclear intensity	statistically significant cell loss	capable in eliciting apoptosis	18,356 RLU	–	–	–
